# Reference: publication PMC4412288, “Crystal Structures of the Carboxyl cGMP Binding Domain of the Plasmodium falciparum cGMP-dependent Protein Kinase Reveal a Novel Capping Triad Crucial for Merozoite Egress” (PLoS Pathogens, 2015)
# Where “and” joins values, the source holds several entries; their conditions need not be identical. Identical values can stand only once.
# Columns and labels:
# [1] = biological target: T1, PfPKG (1-853) Wild Type (Plasmodium falciparum, UniProt Q8I719); format: biochemical
# T1 construct: full-length PfPKG (residues 1–853); His-tag (pQTEV, TEV site) (N, cleaved yes); made in house; host or cells: E. coli TP2000 (delta-cya)
# T1 sequence (Q8I719 whole entry, the tested form may be a part): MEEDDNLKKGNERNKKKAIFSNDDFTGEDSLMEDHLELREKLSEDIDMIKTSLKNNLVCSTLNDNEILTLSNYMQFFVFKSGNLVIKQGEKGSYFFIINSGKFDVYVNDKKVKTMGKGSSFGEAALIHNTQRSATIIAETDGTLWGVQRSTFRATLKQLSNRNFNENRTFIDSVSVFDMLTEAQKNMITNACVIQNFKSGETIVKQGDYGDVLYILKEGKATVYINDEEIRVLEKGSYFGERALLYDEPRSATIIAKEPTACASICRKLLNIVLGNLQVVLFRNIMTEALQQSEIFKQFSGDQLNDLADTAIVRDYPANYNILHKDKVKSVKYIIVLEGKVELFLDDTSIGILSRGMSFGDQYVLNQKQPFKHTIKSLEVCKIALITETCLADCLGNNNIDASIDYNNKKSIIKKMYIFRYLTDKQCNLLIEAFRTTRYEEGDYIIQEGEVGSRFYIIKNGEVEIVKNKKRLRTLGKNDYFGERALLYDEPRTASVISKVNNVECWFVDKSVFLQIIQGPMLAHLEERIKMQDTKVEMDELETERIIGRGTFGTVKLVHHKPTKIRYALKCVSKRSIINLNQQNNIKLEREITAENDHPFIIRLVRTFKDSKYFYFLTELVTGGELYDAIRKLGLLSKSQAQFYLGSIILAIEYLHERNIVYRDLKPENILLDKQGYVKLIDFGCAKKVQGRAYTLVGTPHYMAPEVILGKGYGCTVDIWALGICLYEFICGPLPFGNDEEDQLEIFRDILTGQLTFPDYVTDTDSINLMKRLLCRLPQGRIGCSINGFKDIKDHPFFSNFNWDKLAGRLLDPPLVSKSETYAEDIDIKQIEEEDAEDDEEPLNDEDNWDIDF
# Method: (§1) Kinase activity was determined using a microfluidic mobility-shift assay on a Caliper DeskTop Profiler (Caliper Life Sciences, PerkinElmer). […] Reaction mixtures without cyclic nucleotide were used as controls. For electrophoretic separation of substrate and product, a ProfilerPro LabChip (4-sipper mode; Caliper Life Sciences, PerkinElmer) was used under the following conditions: downstream voltage-500 V, upstream voltage-1,900 V with a screening pressure of-1.3 psi.
# [2] = biological target: T2, PfPKG (1-853) R484A/Q532A/D533A (Plasmodium falciparum, UniProt Q8I719, D533A/Q532A/R484A); format: biochemical; conditions: triple mutant versus wild type
# T2 construct: full-length PfPKG (residues 1–853); His-tag (pQTEV, TEV site) (N, cleaved yes); made in house; host or cells: E. coli TP2000 (delta-cya)
# T2 sequence (Q8I719 whole entry R484A/Q532A/D533A, the tested form may be a part): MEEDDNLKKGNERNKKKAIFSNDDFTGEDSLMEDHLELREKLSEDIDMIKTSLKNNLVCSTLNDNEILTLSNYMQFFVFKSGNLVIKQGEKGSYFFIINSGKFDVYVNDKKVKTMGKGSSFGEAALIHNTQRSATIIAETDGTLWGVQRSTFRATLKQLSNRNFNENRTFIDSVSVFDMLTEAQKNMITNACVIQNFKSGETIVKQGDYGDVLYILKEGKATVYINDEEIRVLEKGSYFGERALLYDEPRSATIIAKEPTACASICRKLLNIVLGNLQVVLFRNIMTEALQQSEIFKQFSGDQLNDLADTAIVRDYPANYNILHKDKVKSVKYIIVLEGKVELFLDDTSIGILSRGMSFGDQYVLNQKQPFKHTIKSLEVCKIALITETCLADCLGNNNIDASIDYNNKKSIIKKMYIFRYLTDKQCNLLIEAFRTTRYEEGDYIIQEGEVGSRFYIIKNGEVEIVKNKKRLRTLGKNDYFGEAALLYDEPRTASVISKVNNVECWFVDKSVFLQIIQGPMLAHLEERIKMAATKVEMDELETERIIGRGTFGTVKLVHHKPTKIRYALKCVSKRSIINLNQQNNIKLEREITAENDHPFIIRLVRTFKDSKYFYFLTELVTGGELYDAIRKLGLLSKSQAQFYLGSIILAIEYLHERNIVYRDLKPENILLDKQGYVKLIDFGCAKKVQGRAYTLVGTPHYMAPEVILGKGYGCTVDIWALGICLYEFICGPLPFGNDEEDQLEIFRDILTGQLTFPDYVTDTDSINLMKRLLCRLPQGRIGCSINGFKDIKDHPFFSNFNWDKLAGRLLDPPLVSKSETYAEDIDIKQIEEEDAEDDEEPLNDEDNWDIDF
# Method: as §1
# [3] = biological target: T3, PfPKG (1-853) D533A (Plasmodium falciparum, UniProt Q8I719, D533A); format: biochemical
# T3 construct: full-length PfPKG (residues 1–853); His-tag (pQTEV, TEV site) (N, cleaved yes); made in house; host or cells: E. coli TP2000 (delta-cya)
# T3 sequence (Q8I719 whole entry D533A, the tested form may be a part): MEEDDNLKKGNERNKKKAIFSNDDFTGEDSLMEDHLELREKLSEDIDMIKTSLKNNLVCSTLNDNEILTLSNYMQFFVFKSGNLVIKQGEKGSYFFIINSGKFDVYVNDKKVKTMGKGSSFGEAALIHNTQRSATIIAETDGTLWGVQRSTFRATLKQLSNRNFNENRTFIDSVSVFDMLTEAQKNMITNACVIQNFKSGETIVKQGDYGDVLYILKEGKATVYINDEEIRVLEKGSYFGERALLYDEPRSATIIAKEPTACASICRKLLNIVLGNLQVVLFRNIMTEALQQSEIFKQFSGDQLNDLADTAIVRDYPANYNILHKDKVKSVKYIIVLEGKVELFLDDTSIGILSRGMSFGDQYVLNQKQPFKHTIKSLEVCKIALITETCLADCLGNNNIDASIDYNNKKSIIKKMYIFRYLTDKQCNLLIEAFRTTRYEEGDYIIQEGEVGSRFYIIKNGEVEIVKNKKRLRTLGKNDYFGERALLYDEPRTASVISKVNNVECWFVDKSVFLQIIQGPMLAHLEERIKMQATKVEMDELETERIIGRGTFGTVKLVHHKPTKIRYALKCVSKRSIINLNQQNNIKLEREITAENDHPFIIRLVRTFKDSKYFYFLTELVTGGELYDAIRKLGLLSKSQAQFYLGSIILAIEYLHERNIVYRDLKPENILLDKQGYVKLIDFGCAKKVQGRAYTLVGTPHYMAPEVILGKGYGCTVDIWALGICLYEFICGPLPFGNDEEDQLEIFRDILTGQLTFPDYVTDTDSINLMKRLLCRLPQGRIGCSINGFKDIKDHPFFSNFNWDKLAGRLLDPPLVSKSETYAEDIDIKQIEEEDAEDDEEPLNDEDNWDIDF
# Method: as §1
# [4] = biological target: T4, PfPKG PfCNB-B (residues 158–294) (Plasmodium falciparum, UniProt Q8I719); experiment: Competition FP assay, isolated PfCNB-B domain; format: binding; conditions: competition with 8-Fluo-cGMP, read-out: EC50 ± SEM (n) competition measurements
# T4 construct: 158–294 for CNB-B; His-tag (pQTEV, TEV site) (N, cleaved yes); made in house; host or cells: E. coli TP2000 (delta-cya)
# T4 sequence (Q8I719 158-294): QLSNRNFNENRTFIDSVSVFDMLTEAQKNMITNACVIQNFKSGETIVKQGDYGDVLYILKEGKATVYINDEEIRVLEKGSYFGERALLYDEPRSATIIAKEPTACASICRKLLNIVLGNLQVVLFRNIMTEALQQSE
# Method: (§2) Measurements were performed in 150 mM NaCl, 20 mM MOPS plus 0.005% (w/v) CHAPS pH 7.0 using the Fusion a-FP microtiter plate reader at room temperature in a 384 well microtiterplate (Perkin Elmer, Optiplate, black). […] The KD values were calculated from sigmoidal dose-response curves.
# (§3) For competition FP experiments, the protein concentration and the concentration of 8-Fluo-cGMP were fixed to give a polarization signal that was 50% of the maximum value obtained from direct FP measurements. […] FP signals were detected as indicated above. […] The EC50 values were calculated from sigmoidal dose-response curves.
# [5] = biological target: T5, PfPKG full regulatory domain (1–542) Q532A (Plasmodium falciparum, UniProt Q8I719, Q532A); format: binding; conditions: read-out: EC50 ± SEM (n) competition experiments
# T5 construct: PfPKG full regulatory domain (1–542); His-tag (pQTEV, TEV site) (N, cleaved yes); made in house; host or cells: E. coli TP2000 (delta-cya)
# Method: as §2, §3
# [6] = biological target: T6, PfPKG full regulatory domain (1–542) R484A (Plasmodium falciparum, UniProt Q8I719, R484A); format: binding; conditions: read-out: EC50 ± SEM (n) competition experiments
# T6 construct: PfPKG full regulatory domain (1–542); His-tag (pQTEV, TEV site) (N, cleaved yes); made in house; host or cells: E. coli TP2000 (delta-cya)
# Method: as §2, §3
# [7] = biological target: T7, PfPKG CNB-D (401–542) R484A/Q532A/D533A (Plasmodium falciparum, UniProt Q8I719, D533A/Q532A/R484A); format: binding; conditions: PfCNB-D R484A/Q532A/D533A; read-out: EC50 ± SEM (n) competition experiments
# T7 construct: 401–542 for CNB-D; His-tag (pQTEV, TEV site) (N, cleaved yes); made in house; host or cells: E. coli TP2000 (delta-cya)
# T7 sequence (Q8I719 401-542 R484A/Q532A/D533A): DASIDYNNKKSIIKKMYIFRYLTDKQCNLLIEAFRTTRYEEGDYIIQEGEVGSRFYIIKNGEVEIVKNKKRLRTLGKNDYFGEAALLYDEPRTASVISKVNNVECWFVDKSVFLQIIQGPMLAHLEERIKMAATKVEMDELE
# Method: as §2, §3
# [8] = biological target: T8, PfPKG CNB-D (401–542) Q532A (Plasmodium falciparum, UniProt Q8I719, Q532A); format: binding; conditions: PfCNB-D Q532A; read-out: EC50 ± SEM (n) competition experiments
# T8 construct: 401–542 for CNB-D; His-tag (pQTEV, TEV site) (N, cleaved yes); made in house; host or cells: E. coli TP2000 (delta-cya)
# T8 sequence (Q8I719 401-542 Q532A): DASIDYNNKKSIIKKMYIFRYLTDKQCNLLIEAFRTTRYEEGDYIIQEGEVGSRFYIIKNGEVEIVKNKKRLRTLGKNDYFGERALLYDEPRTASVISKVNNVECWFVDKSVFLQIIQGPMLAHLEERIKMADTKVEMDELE
# Method: as §2, §3
# [9] = biological target: T9, PfPKG full regulatory domain (1–542) Wild type (Plasmodium falciparum, UniProt Q8I719); format: binding; conditions: read-out: EC50 ± SEM (n) competition experiments
# T9 construct: PfPKG full regulatory domain (1–542); His-tag (pQTEV, TEV site) (N, cleaved yes); made in house; host or cells: E. coli TP2000 (delta-cya)
# T9 sequence (Q8I719 1-542): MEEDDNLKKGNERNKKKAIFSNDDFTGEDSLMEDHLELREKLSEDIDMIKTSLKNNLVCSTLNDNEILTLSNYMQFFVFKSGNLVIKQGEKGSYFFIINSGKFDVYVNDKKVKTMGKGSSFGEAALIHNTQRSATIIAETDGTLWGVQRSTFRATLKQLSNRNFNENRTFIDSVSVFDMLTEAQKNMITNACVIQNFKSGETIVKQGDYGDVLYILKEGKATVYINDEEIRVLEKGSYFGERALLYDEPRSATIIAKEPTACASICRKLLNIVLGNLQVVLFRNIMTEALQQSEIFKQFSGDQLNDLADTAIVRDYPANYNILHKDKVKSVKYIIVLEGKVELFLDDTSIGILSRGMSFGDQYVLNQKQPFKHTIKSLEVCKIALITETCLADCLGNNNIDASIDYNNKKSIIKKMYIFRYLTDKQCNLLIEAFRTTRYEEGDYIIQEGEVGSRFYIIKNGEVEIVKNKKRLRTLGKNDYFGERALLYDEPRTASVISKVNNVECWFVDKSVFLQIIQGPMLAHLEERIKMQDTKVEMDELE
# Method: as §2, §3
# [10] = biological target: T10, PfPKG CNB-D (401–542) R484A (Plasmodium falciparum, UniProt Q8I719, R484A); format: binding; conditions: PfCNB-D R484A; read-out: EC50 ± SEM (n) competition experiments
# T10 construct: 401–542 for CNB-D; His-tag (pQTEV, TEV site) (N, cleaved yes); made in house; host or cells: E. coli TP2000 (delta-cya)
# Method: as §2, §3
# [11] = biological target: T11, PfPKG PfCNB-A (residues 1–173) (Plasmodium falciparum, UniProt Q8I719); format: binding; conditions: competition with 8-Fluo-cGMP, read-out: EC50 ± SEM (n) competition measurements
# T11 construct: residues 1–173 for CNB-A; His-tag (pQTEV, TEV site) (N, cleaved yes); made in house; host or cells: E. coli TP2000 (delta-cya)
# Method: as §2, §3
# [12] = biological target: T12, PfPKG full regulatory domain (1–542) R484A/Q532A/D533A (Plasmodium falciparum, UniProt Q8I719, D533A/Q532A/R484A); format: binding; conditions: read-out: EC50 ± SEM (n) competition experiments
# T12 construct: PfPKG full regulatory domain (1–542); His-tag (pQTEV, TEV site) (N, cleaved yes); made in house; host or cells: E. coli TP2000 (delta-cya)
# T12 sequence (Q8I719 1-542 R484A/Q532A/D533A): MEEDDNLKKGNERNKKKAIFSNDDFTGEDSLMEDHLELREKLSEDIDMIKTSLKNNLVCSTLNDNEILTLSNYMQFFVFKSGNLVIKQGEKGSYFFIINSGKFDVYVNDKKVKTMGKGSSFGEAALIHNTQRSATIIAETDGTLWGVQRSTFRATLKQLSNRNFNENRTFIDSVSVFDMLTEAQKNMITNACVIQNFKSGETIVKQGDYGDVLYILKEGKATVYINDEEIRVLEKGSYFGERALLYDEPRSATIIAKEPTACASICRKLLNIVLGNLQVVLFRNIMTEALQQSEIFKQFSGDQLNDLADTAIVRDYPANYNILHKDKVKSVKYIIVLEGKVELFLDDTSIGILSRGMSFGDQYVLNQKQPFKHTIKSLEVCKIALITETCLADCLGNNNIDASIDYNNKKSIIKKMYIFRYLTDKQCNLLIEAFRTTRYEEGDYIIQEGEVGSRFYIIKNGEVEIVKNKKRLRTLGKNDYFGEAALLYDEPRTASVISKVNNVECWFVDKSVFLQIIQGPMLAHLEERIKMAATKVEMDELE
# Method: as §2, §3
# [13] = biological target: T13, PfPKG CNB-D (401–542) D533A (Plasmodium falciparum, UniProt Q8I719, D533A); format: binding; conditions: PfCNB-D D533A; read-out: EC50 ± SEM (n) competition experiments
# T13 construct: 401–542 for CNB-D; His-tag (pQTEV, TEV site) (N, cleaved yes); made in house; host or cells: E. coli TP2000 (delta-cya)
# T13 sequence (Q8I719 401-542 D533A): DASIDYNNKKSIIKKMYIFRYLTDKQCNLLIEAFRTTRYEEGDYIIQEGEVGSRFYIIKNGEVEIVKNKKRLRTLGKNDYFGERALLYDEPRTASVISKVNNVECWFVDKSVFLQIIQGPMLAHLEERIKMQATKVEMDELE
# Method: as §2, §3
# [14] = biological target: T14, PfPKG CNB-D (401–542) Wild type (Plasmodium falciparum, UniProt Q8I719); format: binding
# T14 construct: 401–542 for CNB-D; His-tag (pQTEV, TEV site) (N, cleaved yes); made in house; host or cells: E. coli TP2000 (delta-cya)
# T14 sequence (Q8I719 401-542): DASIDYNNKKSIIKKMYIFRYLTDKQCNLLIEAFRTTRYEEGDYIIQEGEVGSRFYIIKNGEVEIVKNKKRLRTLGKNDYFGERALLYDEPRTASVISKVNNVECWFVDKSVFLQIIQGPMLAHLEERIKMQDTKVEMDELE
# Method: as §2, §3
# [15] = biological target: T15, PfPKG full regulatory domain (1–542) D533A (Plasmodium falciparum, UniProt Q8I719, D533A); format: binding; conditions: read-out: EC50 ± SEM (n) competition experiments
# T15 construct: PfPKG full regulatory domain (1–542); His-tag (pQTEV, TEV site) (N, cleaved yes); made in house; host or cells: E. coli TP2000 (delta-cya)
# T15 sequence (Q8I719 1-542 D533A): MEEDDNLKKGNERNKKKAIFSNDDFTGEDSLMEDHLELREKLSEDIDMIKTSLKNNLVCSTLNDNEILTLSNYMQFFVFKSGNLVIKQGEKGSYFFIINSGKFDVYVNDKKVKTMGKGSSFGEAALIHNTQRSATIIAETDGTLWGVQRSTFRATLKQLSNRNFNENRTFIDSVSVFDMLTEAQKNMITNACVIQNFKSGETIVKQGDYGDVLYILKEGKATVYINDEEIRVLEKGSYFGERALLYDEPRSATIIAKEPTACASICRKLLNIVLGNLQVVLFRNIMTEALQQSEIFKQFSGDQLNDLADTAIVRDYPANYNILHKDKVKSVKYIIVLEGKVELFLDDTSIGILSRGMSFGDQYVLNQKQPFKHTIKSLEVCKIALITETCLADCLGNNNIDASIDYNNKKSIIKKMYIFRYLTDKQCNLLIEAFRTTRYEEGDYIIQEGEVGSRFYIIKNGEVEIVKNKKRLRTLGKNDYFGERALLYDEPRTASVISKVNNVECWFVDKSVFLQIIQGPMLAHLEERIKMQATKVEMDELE
# Method: as §2, §3
# [16] = biological target: T16, PfCNB-C (residues 275–428) (Plasmodium falciparum, UniProt Q8I719); experiment: FP binding measurements, isolated PfCNB-C domain
# T16 construct: 275–428 for CNB-C; His-tag (pQTEV, TEV site) (N, cleaved yes); made in house; host or cells: E. coli TP2000 (delta-cya)
# Description: A manually designed construct consisting of PfPKG amino acids 1–853 with codons optimized for expression in E.coli was synthesized at Life Technologies. All PfPKG constructs were ligated into the His-tagged bacterial expression vector, pQTEV [28]. In designing the expression constructs of each CNB, we used the sequence of the cGMP selective CNB-B that we recently reported. The domain boundaries for the individual constructs are: residues 1–173 for CNB-A, 158–294 for CNB-B, 275–428 for CNB-C and 401–542 for CNB-D. All PfPKG proteins were expressed in TP2000 E. coli. The cells were grown at 37 °C to an OD600nm of 0.6, then induced with 0.5 mM IPTG, and grown for an additional 10 hours at 25 °C. Cells were harvested by centrifugation, then resuspended in 50 mM potassium phosphate (pH 7.5), 500 mM NaCl and 1 mM β-mercaptoethanol, and lysed using a cell disruptor (Constant Systems).
# The direct fluorescence polarization (FP) assay was performed following the procedure from Moll et al. Measurements were performed in 150 mM NaCl, 20 mM MOPS plus 0.005% (w/v) CHAPS pH 7.0 using the Fusion a-FP microtiter plate reader at room temperature in a 384 well microtiterplate (Perkin Elmer, Optiplate, black). The protein concentration was varied while the concentration of 8-Fluo-cAMP/8-Fluo-cGMP (Biolog Life Science Institute (Bremen, Germany)) was fixed at 1–5 nM. […] The KD values were calculated from sigmoidal dose-response curves.
# For competition FP experiments, the protein concentration and the concentration of 8-Fluo-cGMP were fixed to give a polarization signal that was 50% of the maximum value obtained from direct FP measurements. […] FP signals were detected as indicated above. Data were analyzed with GraphPad Prism 5.03 by plotting the polarization signal in mPol against the logarithm of the cyclic nucleotide concentration. The EC50 values were calculated from sigmoidal dose-response curves.
# [17] = tested on: human PKG Iβ CNB-B; design: method as in PMID 24239458; conditions: cited from earlier work
# [18] = tested on: PfCNB-C; design: method as in PMID 12817987; conditions: cited from earlier work
# [19] = tested on: PfPKG with disabled PfCNB-D; design: method as in PMID 12817987; conditions: disabling PfCNB-D by mutation of a putative cGMP-binding residue; cited from earlier work
# [20] = tested on: P. falciparum PfPKGT618Q-3xHA control line; experiment: Growth assay in presence of compound 2, T618Q-3xHA control line; format: cell-based, Plasmodium falciparum; conditions: 1 μM; duration of the experiment 7 days
# Method: (§4) P. falciparum lines 3D7/attB [22], 3D7/PfPKGT618Q [6], and 3D7/PfPKG-HA [35] were cultured according to standard procedures in human A+ erythrocytes (National Blood Transfusion Service, UK) and RPMI 1640 medium supplemented with 0.5% Albumax type II (Lifetech) and 5 nM WR99210 (Jacobus Pharmaceuticals, New Jersey).
# (§5) P. falciparum cultures were synchronised by repeated sorbitol lysis, then either compound 2 (1μM) or DMSO was added to late trophozoites / early schizonts and cultures harvested 16h later to count newly formed ring stage parasites. Cells were fixed in 4% formaldehyde/0.1% glutaraldehyde in PBS for 30 minutes at room temperature, stained with SYBR green (Lifetech) diluted 1:10000 in PBS for 30 minutes, washed with PBS and analysed on a FACSCalibur cell analyser (Becton Dickinson). FACS data were analysed using FlowJo software. For growth assays, starting parasitaemia was 0.2% ring stages and cultured in presence or absence of compound 2 (1 μM). Samples were taken every 48h and fixed, stained, and analyzed as described above.
# [21] = tested on: P. falciparum PfPKGT618Q replacement line and PfPKGT618Q-3xHA control line; experiment: Schizont accumulation assay, T618Q lines; format: cell-based, Plasmodium falciparum; conditions: 1 μM; Giemsa-stained blood films
# [22] = tested on: PfPKG T618Q mutant; design: method as in PMID 18532880, PMID 19915077, PMID 23675297, PMID 24594931; conditions: T618Q gatekeeper substitution; cited from earlier work
# [23] = tested on: P. falciparum PfPKGT618Q/R484A-3xHA transgenic line; experiment: Growth assay in presence of compound 2, R484A line; format: cell-based, Plasmodium falciparum; conditions: 1 μM; duration of the experiment 7 days
# Method: as §4, §5
# [24] = tested on: P. falciparum PfPKGT618Q/R484A/Q532A/D533A-3xHA transgenic line; experiment: Growth assay in presence of compound 2, triple mutant line; format: cell-based, Plasmodium falciparum; conditions: 1 μM; duration of the experiment 7 days
# Method: as §4, §5
# [25] = tested on: P. falciparum transgenic lines with the capping triad mutations; experiment: Schizont accumulation assay, capping triad mutant lines; format: cell-based, Plasmodium falciparum; conditions: 1 μM; Giemsa-stained blood films
# Method: P. falciparum cultures were synchronised by repeated sorbitol lysis, then either compound 2 (1μM) or DMSO was added to late trophozoites / early schizonts and cultures harvested 16h later to count newly formed ring stage parasites. […] FACS data were analysed using FlowJo software. For growth assays, starting parasitaemia was 0.2% ring stages and cultured in presence or absence of compound 2 (1 μM). Samples were taken every 48h and fixed, stained, and analyzed as described above.
structure (smiles),measurement,setting,value
"Nc1nc2c(ncn2[C@@H]2O[C@@H]3COP(=O)(O)O[C@H]3[C@H]2O)c(=O)[nH]1 [cGMP, Cyclic GMP]","Ka ± SEM (n), activation constant",[1],66 nM
same,increase of Ka:cGMP on mutating all three residues,[2],over 28 fold
same,"Ka ± SEM (n), activation constant",[3],330 nM
same,EC50,[4],1200 nM
same,EC50,[5],2200 ± 100 nM
same,EC50,[6],960 ± 20 nM
same,EC50,[7],7000 nM and 7200 nM
same,EC50,[8],2400 ± 100 nM
same,EC50,[9],79 ± 4 nM
same,EC50,[10],3200 ± 400 nM
same,EC50,[11],1000 nM
same,EC50,[12],1400 ± 100 nM
same,EC50,[13],760 ± 40 nM
same,EC50,"[14]; PfCNB-D wild type, competition with 8-Fluo-cGMP, read-out: EC50 ± SEM (n) competition experiments",38 nM and 37.8 nM
same,selectivity for cGMP,"[14]; PfCNB-D, cGMP over cAMP",over 190 fold
same,EC50,[15],610 ± 50 nM
same,cGMP binding,[16],little to no binding
same,EC50,[17],215 nM
same,cGMP binding,[18],could not be detected
same,increase in the activation constant for cGMP (Ka:cGMP),[19],10 fold
CN(C)Cc1ccn2c(-c3ccnc(N)n3)c(-c3ccc(F)cc3)nc2c1 [compound 2],parasite growth in the presence of compound,[20],able to grow at a similar rate to the allelic replacement control line
same,ring stage parasites observed,[21],high levels of ring stage parasites
same,sensitivity of the kinase to the inhibitor,[22],no longer sensitive
same,parasite growth in the presence of compound,[23],did not proliferate
same,parasite growth in the presence of compound,[24],did not proliferate
same,progression from schizont to ring stage parasites,[25],did not progress to ring stage parasites
